Results on 32 molecules are retold here after patent US4868183A, “N-pyrazinyl substituted P-aminophenols” (Otsuka Pharmaceutical Factory, Inc., priority 1986, dated 1989).

This assay relates to carrageenin-induced paw edema. In words: Anti-inflammatory activity: inhibition of carrageenin-induced paw edema in rats. It counts as in vivo, rat (male, S.D. strain). The following applies: Rattus norvegicus, po, read-out: Inhibition percent of edema; for inhibition in vivo at 50 mg/kg: 50 mg/kg p.o.; for inhibition in vivo at 100 mg/kg: 100 mg/kg p.o.; for inhibition in vivo at 25 mg/kg: 25 mg/kg p.o. The procedure: (1) Anti-inflammatory activity: inhibition of carrageenin-induced paw edema in rats The compound was tested for the above activity according to the method of C.A. Winter et al. [Proc. Soc. […] One hour after the test compound was orally given to the animal, 0.1 ml of 1% carrageenin solution was subcutaneously injected into the right footpad. The paw volume was measured 3 hours thereafter, and the resulting increase in the volume was calculated based on the volume before the injection of carrageenin solution. The percent inhibition was determined in comparison with the increase in the control group.
On the technique in general: In the carrageenan paw model, swelling and tenderness develop within hours.

[1] abbreviates: 1 h before carrageenin, paw volume 3 h after, vs control.

Take `CC(C)(C)c1cc(Nc2cnccn2)cc(C(C)(C)C)c1O` [Compound 1, 2,6-di-tert-butyl-4-pyrazinylaminophenol]: the inhibition in vivo at 50 mg/kg under setting [1] stood at 37%.

On to `CC(C)c1cc(Nc2cnccn2)cc(C(C)(C)C)c1O` [Compound 4, 2-isopropyl-6-tert-butyl-4-pyrazinylaminophenol], for which the inhibition in vivo at 100 mg/kg under setting [1] came out at 39%. `CC(C)c1cc(Nc2cccnn2)cc(C(C)(C)C)c1O` [Compound 10]: the inhibition in vivo at 25 mg/kg under setting [1] was determined as 35%. For the molecule `CC(C)(C)c1cc(Nc2cccnn2)cc(C(C)(C)C)c1O` [Compound 11, 2,6-di-tert-butyl-4-[(3-pyridazinyl)amino]phenol], under setting [1], the inhibition in vivo at 100 mg/kg came to 62%. On to `CC(C)(C)c1cc(Nc2ccnnc2)cc(C(C)(C)C)c1O` [Compound 12, 2,6-di-tert-butyl-4-[(4-pyridazinyl)amino]phenol], for which the inhibition in vivo at 25 mg/kg under setting [1] came out at 29%.

Consider `CC(C)(C)c1cc(Nc2ncccn2)cc(C(C)(C)C)c1O` [Compound 13, 2,6-di-tert-butyl-4-[(2-pyrimidinyl)amino]phenol], for which the inhibition in vivo at 10 mg/kg (10 mg/kg p.o., 1 h before carrageenin, paw volume 3 h after, vs control) amounted to 41%. As for `CC(C)(C)c1cc(Nc2ccncn2)cc(C(C)(C)C)c1O` [Compound 14, 2,6-di-tert-butyl-4-[(4-pyrimidinyl)amino]phenol], the inhibition in vivo at 50 mg/kg under setting [1] is 30%. For `CC(C)(C)c1cc(Nc2cncnc2)cc(C(C)(C)C)c1O` [Compound 15], the inhibition in vivo at 100 mg/kg under setting [1] was found to be 16%. Same read-out and setting: the same measure for `Cc1cnc(Nc2cc(C(C)(C)C)c(O)c(C(C)(C)C)c2)cn1` [Compound 16]: 10%. Consider `Cc1ccc(Nc2cc(C(C)(C)C)c(O)c(C(C)(C)C)c2)nn1` [Compound 17, 2,6-di-tert-butyl-4-[(6-methyl-3-pyridazinyl)amino]phenol], for which the inhibition in vivo at 25 mg/kg under setting [1] is 36%.

With `Cc1ccnc(Nc2cc(C(C)(C)C)c(O)c(C(C)(C)C)c2)n1` [Compound 18, 2,6-di-tert-butyl-4-[(4-methyl-2-pyrimidinyl)amino]phenol], the inhibition in vivo at 50 mg/kg under setting [1] was found to be 36%. Consider `CC(C)(C)c1cc(Nc2cncnc2N)cc(C(C)(C)C)c1O` [Compound 22, 2,6-di-tert-butyl-4-[(4-amino-5-pyrimidinyl)amino]phenol], for which, under setting [1], the inhibition in vivo at 100 mg/kg stood at 32%. In the case of `COc1ccc(Nc2cc(C(C)(C)C)c(O)c(C(C)(C)C)c2)nn1` [Compound 24, 2,6-di-tert-butyl-4-[(6-methoxy-3-pyridazinyl)amino]phenol], the inhibition in vivo at 25 mg/kg under setting [1] is 31%.

`CC(C)(C)c1cc(Nc2cncc(Cl)n2)cc(C(C)(C)C)c1O` [Compound 25]: the inhibition in vivo at 100 mg/kg under setting [1] is 15%. The same measure, in the same setting: then `CC(C)(C)c1cc(Nc2ccc(Cl)nn2)cc(C(C)(C)C)c1O` [Compound 26, 2,6-di-tert-butyl-4-[(6-chloro-3-pyridazinyl)amino]phenol], with 27%; and `CC(C)(C)c1cc(Nc2cc(Cl)nnc2Cl)cc(C(C)(C)C)c1O` [Compound 27, 2,6-di-tert-butyl-4-[(3,6-dichloro-4-pyridazinyl)amino]pheonl], with 33%. On the same count and under the same terms, then `CCOc1ccc(Nc2cc(C(C)(C)C)c(O)c(C(C)(C)C)c2)nn1` [Compound 28, 2,6-di-tert-butyl-4-[(6-ethoxy-3-pyridazinyl)amino]phenol], with 33%; and `CC(C)(C)c1cc(Nc2ccc(CO)nn2)cc(C(C)(C)C)c1O` [Compound 33, 2,6-di-tert-butyl-4-[(6-hydroxymethyl-3-pyridazinyl)amino]phenol], with 46%; and `CC(C)(C)c1cc(Nc2cc[nH]n2)cc(C(C)(C)C)c1O` [Compound 34, 2,6-di-tert-butyl-4-(3-pyrazolylamino)phenol], with 65%. On the same count and under the same terms, the same measure for `Cn1nccc1Nc1cc(C(C)(C)C)c(O)c(C(C)(C)C)c1` [Compound 39, 2,6-di-tert-butyl-4-[(2-methyl-3-pyrazolyl)amino]phenol]: 46%. As to `CC(C)(C)c1cc(Nc2ncc[nH]2)cc(C(C)(C)C)c1O` [Compound 48], the inhibition in vivo at 25 mg/kg under setting [1] came to 63%. Regarding `CC(C)(C)c1cc(Nc2ncco2)cc(C(C)(C)C)c1O` [Compound 49, 2,6-di-tert-butyl-4-[(2-oxazolyl)amino]phenol], the inhibition in vivo at 100 mg/kg under setting [1] came to 41%.

In the case of `Cc1cc(Nc2cc(C(C)(C)C)c(O)c(C(C)(C)C)c2)no1` [Compound 50], under setting [1], the inhibition in vivo at 50 mg/kg came to 12%.

`CC(C)(C)c1cc(Nc2c[nH]nn2)cc(C(C)(C)C)c1O` [Compound 51, 2,6-di-tert-butyl-4-[(1,2,3-triazol-4-yl)amino]phenol]: the inhibition in vivo at 100 mg/kg under setting [1] stood at 42%.

Consider `CC(C)(C)c1cc(Nc2nnc[nH]2)cc(C(C)(C)C)c1O` [Compound 54], for which, under setting [1], the inhibition in vivo at 100 mg/kg was determined as 20%. As for `CC(C)(C)c1cc(Nn2cnnc2)cc(C(C)(C)C)c1O` [Compound 55, 2,6-di-tert-butyl-4-[(1,2,4-triazol-4-yl)amino]phenol], under setting [1], the inhibition in vivo at 100 mg/kg came out at 23%. On to `CC(C)(C)c1cc(Nc2nc(-c3ccccc3)ns2)cc(C(C)(C)C)c1O` [Compound 56, 2,6-di-tert-butyl-4-[(3-phenyl-1,2,4-thiadiazol-5-yl)amino]phenol], for which, under setting [1], the inhibition in vivo at 100 mg/kg was found to be 13%. Turning to `Cc1nnc(Nc2cc(C(C)(C)C)c(O)c(C(C)(C)C)c2)s1` [Compound 58, 2,6-di-tert-butyl-4-[(5-methyl-1,3,4-thiadiazol-2-yl)amino]pheonl], the inhibition in vivo at 100 mg/kg under setting [1] turned out to be 30%. Regarding `CC(C)(C)c1cc(Nc2nccnn2)cc(C(C)(C)C)c1O` [Compound 59, 2,6-di-tert-butyl-4-[(1,2,4-triazin-3-yl)amino]phenol], the inhibition in vivo at 50 mg/kg under setting [1] was 37%.

For `Cc1sccc1Nc1cc(C(C)(C)C)c(O)c(C(C)(C)C)c1` [Compound 61, 2,6-di-tert-butyl-4-[(2-methyl-3-thienyl)amino]phenol], the inhibition in vivo at 50 mg/kg under setting [1] came out at 25%. Take `CC(C)(C)c1cc(Nc2cncc[n+]2[O-])cc(C(C)(C)C)c1O` [Compound 64, 2-N-(3,5-di-tert-butyl-4-hydroxyphenyl)aminopyrazine-1-oxide]: the inhibition in vivo at 25 mg/kg under setting [1] came out at 31%. Regarding `COc1ccc2c(c1)c(CC(=O)O)c(C)n2C(=O)c1ccc(Cl)cc1` [Indomethacin, reference compound], the inhibition in vivo at 5 mg/kg (3 h) amounted to 36%.
